Experimental data published in PubChem BioAssay AID330 (DTP/NCI, 2004).
“And” between values parts separate entries of the source, which are not always exact repeats. Equal values may be shown once. Toxic doses and inconclusive results are not listed. The calls were made as follows: active = survival T/C of 150% or more; inactive = T/C below 125% in these data.

Tested on: P388 leukemia ip, CD2F1 mice, survival T/C
Assay: NCI In Vivo Anticancer Drug Screen. Data for tumor model P388 Leukemia (intraperitoneal) in CD2F1 (CDF1) mice
Details: endpoint: median survival time, higher = longer survival
Outline: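 Mice carrying the transplanted tumor received test compound or vehicle. Survival was recorded in each group, and the value is the treated-group measurement divided by that of the vehicle-treated control group.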

Measured: T/C

CC1=C2CCCCC2(O)OC1=O (stereo not given)
inactive: dose: 100.0 mg/kg/injection, schedule: Q01DX001 (ip), vehicle: saline 100 % of control | dose: 200.0 mg/kg/injection, schedule: Q01DX001 (ip), vehicle: saline 100 % of control | dose: 400.0 mg/kg/injection, schedule: Q01DX001 (ip), vehicle: saline 103 % of control

CC1=CC2OC34COC3CC(OC(=O)C(F)(F)F)C4(C)C2(C)CC1 (stereo not given)
inactive: dose: 24.0 mg/kg/injection, schedule: Q04DX003 (ip), vehicle: saline with Tween-80 120 % of control | dose: 37.5 mg/kg/injection, schedule: Q04DX003 (ip), vehicle: saline with Tween-80 113 % of control | dose: 55.0 mg/kg/injection, schedule: Q04DX003 (ip), vehicle: saline with Tween-80 112 % of control

C/C(=C\[P+](c1ccccc1)(c1ccccc1)c1ccccc1)N1CC1
inactive: dose: 6.0 mg/kg/injection, schedule: Q01DX001 (ip), vehicle: saline with Tween-80 107 % of control and 115 % of control | dose: 9.0 mg/kg/injection, schedule: Q01DX001 (ip), vehicle: saline with Tween-80 101 % of control and 113 % of control | dose: 12.0 mg/kg/injection, schedule: Q01DX001 (ip), vehicle: saline with Tween-80 105 % of control and 108 % of control | dose: 12.5 mg/kg/injection, schedule: Q01DX001 (ip), vehicle: saline with Tween-80 123 % of control | dose: 18.0 mg/kg/injection, schedule: Q01DX001 (ip), vehicle: saline with Tween-80 105 % of control and 113 % of control

CC(C)(C)CC(C)(C)c1ccc(O)cc1O
inactive: dose: 12.5 mg/kg/injection, schedule: Q04DX003 (ip), vehicle: saline with Tween-80 110 % of control | dose: 25.0 mg/kg/injection, schedule: Q04DX003 (ip), vehicle: saline with Tween-80 105 % of control | dose: 50.0 mg/kg/injection, schedule: Q04DX003 (ip), vehicle: saline with Tween-80 120 % of control

O=C1/C(=C/c2ccc(/C=C3\CCc4ccccc4C3=O)cc2)CCc2ccccc21
inactive: dose: 50.0 mg/kg/injection, schedule: Q01DX009 (ip), vehicle: Klucel (hydroxypropylcellulose) (HPC) 102 % of control | dose: 100.0 mg/kg/injection, schedule: Q01DX009 (ip), vehicle: Klucel (hydroxypropylcellulose) (HPC) 99 % of control | dose: 200.0 mg/kg/injection, schedule: Q01DX009 (ip), vehicle: Klucel (hydroxypropylcellulose) (HPC) 101 % of control

c1ccc(P2(c3ccccc3)(c3ccccc3)OCC3CC32)cc1 (stereo not given)
inactive: dose: 3.13 mg/kg/injection, schedule: Q01DX009 (ip), vehicle: saline with Tween-80 103 % of control | dose: 3.13 mg/kg/injection, schedule: Q01DX009 (ip), vehicle: saline 94 % of control | dose: 6.25 mg/kg/injection, schedule: Q01DX009 (ip), vehicle: saline with Tween-80 106 % of control | dose: 6.25 mg/kg/injection, schedule: Q01DX009 (ip), vehicle: saline 98 % of control | dose: 12.5 mg/kg/injection, schedule: Q01DX009 (ip), vehicle: saline with Tween-80 103 % of control and 124 % of control | dose: 12.5 mg/kg/injection, schedule: Q01DX009 (ip), vehicle: saline 95 % of control | dose: 25.0 mg/kg/injection, schedule: Q01DX009 (ip), vehicle: saline with Tween-80 100 % of control and 111 % of control | dose: 25.0 mg/kg/injection, schedule: Q01DX009 (ip), vehicle: saline 100 % of control | dose: 50.0 mg/kg/injection, schedule: Q01DX009 (ip), vehicle: olive oil, sesame oil, peanut oil 95 % of control | dose: 50.0 mg/kg/injection, schedule: Q01DX009 (ip), vehicle: saline with Tween-80 102 % of control

c1ccc(CN2Cc3c(n(-c4ccccc4)c4ccccc34)C2)cc1
inactive: dose: 100.0 mg/kg/injection, schedule: Q04DX003 (ip), vehicle: Klucel (hydroxypropylcellulose) (HPC) 105 % of control | dose: 200.0 mg/kg/injection, schedule: Q04DX003 (ip), vehicle: Klucel (hydroxypropylcellulose) (HPC) 112 % of control | dose: 400.0 mg/kg/injection, schedule: Q04DX003 (ip), vehicle: Klucel (hydroxypropylcellulose) (HPC) 114 % of control

COC(=O)C1=C(C(=O)OC)C(C)(C)N=N1
inactive: dose: 5.3 mg/kg/injection, schedule: Q01DX009 (ip), vehicle: other 111 % of control | dose: 8.0 mg/kg/injection, schedule: Q01DX009 (ip), vehicle: other 117 % of control | dose: 12.0 mg/kg/injection, schedule: Q01DX009 (ip), vehicle: other 114 % of control | dose: 18.0 mg/kg/injection, schedule: Q01DX009 (ip), vehicle: other 112 % of control | dose: 25.0 mg/kg/injection, schedule: Q01DX009 (ip), vehicle: other 99 % of control
